Experimental data taken from US20170094996A1, “PROCESS FOR REBAUDIOSIDE D” (EPC (BEIJING) NATURAL PRODUCTS CO., LTD., priority 2009, published 2017).

Key:
[1] = Sensorical analysis of 3 samples steviol-glycosides, trained panel of 6 test persons; format: in vivo, human; details: 200 ppm solutions in water, 100 ml, blinded
Description: Trained panel of 6 test persons.
Samples were prepared as 200 ppm solutions in water (same temperature).
Each test person received 3 equal glasses with 100 ml of prepared sample. The glasses were denoted with random 3-digit numbers.
The question asked was: “Can you taste a difference between the samples and if so please describe the difference in plain text”.
After the tasting period, the panel exchanged the individual opinions and came to following conclusion (the nature of sample was kept hidden until the conclusion was reached): […]

[2] = compared with stevioside; Phytochemistry 68, 2007, 1855-1863; cited from earlier work

C=C1C[C@@]23CC[C@H]4[C@@](C)(CCC[C@@]4(C)C(=O)O[C@@H]4O[C@H](CO)[C@@H](O)[C@H](O)[C@H]4O)[C@@H]2CC[C@]1(O[C@@H]1O[C@H](CO)[C@@H](O)[C@H](O[C@@H]2O[C@H](CO)[C@@H](O)[C@H](O)[C@H]2O)[C@H]1O[C@@H]1O[C@H](CO)[C@@H](O)[C@H](O)[C@H]1O)C3 [Rebaudioside A]
bitter after taste (panel conclusion) [1]: slight bitter after taste
sweetness compared with the other samples (panel conclusion) [1]: slightly less sweet than the 2 other samples
taste quality [2]: better than stevioside
